Results taken from ChEMBL document CHEMBL1909046, “DrugMatrix in vitro pharmacology data”.

Columns and labels:
[1] = DRUGMATRIX: Phosphodiesterase PDE3 enzyme inhibition (substrate: [3H]cAMP + cAMP); format: tissue-based, Homo sapiens; settings: platelet; Not Active = under 50% inhibition at 10 µM
[2] = molecular target: T1, Alpha-1B adrenergic receptor (Rattus norvegicus, UniProt P15823); assay: DRUGMATRIX: Alpha-1B adrenergic receptor radioligand binding (ligand: prazosin); format: cell membranes, Wistar, Liver, Membrane; settings: Not Active = under 50% inhibition at 10 µM; for Ki: read-out: Ki
T1 sequence (P15823 whole entry): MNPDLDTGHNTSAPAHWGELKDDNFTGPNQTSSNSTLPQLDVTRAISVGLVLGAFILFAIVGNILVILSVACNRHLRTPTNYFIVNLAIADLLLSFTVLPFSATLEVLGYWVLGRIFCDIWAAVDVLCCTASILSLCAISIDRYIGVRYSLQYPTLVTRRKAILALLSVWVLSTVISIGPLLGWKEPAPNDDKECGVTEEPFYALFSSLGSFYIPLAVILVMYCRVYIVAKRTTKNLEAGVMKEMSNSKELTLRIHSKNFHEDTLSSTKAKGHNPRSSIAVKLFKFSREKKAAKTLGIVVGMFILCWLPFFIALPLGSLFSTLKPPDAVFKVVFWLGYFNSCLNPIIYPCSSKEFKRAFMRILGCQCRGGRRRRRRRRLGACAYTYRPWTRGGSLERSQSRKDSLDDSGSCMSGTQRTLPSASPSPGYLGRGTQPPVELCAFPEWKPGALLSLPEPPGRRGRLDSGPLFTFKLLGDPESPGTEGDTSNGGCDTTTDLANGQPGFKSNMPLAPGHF

[3] = molecular target: T2, C-X-C chemokine receptor type 1 (Homo sapiens, UniProt P25024); further: in other assays of this panel Not Active means under 50% inhibition at 10 µM
T2 sequence (P25024 whole entry): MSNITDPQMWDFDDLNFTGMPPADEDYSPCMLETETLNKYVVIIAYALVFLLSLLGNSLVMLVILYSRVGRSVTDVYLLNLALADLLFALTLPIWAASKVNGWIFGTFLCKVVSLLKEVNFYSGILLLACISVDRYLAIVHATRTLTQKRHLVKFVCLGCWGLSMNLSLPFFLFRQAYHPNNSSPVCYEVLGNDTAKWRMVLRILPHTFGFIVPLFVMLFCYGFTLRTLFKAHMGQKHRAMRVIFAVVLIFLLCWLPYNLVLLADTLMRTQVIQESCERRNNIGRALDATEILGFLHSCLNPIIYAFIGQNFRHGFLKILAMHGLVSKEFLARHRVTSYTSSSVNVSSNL

[4] = molecular target: 5-hydroxytryptamine receptor 2B (Homo sapiens, UniProt P41595); format: cell membranes, CHO-K1, Membrane; settings: for Ki: read-out: Ki; on all read-outs here: in other assays of this panel Not Active means under 50% inhibition at 10 µM
5-hydroxytryptamine receptor 2B, sequence (P41595 whole entry): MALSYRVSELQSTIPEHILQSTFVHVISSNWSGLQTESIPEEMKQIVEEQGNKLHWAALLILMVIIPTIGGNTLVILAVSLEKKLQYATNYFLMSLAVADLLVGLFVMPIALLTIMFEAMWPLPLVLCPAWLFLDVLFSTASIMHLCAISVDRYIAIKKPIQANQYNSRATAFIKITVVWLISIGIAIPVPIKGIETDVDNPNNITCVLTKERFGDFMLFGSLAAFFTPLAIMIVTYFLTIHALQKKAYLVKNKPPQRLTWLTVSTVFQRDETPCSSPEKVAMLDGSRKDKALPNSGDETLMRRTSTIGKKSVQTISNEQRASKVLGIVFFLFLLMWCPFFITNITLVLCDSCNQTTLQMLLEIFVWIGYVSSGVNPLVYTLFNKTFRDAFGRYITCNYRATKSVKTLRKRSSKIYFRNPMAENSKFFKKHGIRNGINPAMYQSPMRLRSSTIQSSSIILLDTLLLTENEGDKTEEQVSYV

[5] = molecular target: Vascular endothelial growth factor receptor 1 (Homo sapiens, UniProt P17948); format: cell-based; settings: huvec; further: in other assays of this panel Not Active means under 50% inhibition at 10 µM
Vascular endothelial growth factor receptor 1, sequence (P17948 whole entry): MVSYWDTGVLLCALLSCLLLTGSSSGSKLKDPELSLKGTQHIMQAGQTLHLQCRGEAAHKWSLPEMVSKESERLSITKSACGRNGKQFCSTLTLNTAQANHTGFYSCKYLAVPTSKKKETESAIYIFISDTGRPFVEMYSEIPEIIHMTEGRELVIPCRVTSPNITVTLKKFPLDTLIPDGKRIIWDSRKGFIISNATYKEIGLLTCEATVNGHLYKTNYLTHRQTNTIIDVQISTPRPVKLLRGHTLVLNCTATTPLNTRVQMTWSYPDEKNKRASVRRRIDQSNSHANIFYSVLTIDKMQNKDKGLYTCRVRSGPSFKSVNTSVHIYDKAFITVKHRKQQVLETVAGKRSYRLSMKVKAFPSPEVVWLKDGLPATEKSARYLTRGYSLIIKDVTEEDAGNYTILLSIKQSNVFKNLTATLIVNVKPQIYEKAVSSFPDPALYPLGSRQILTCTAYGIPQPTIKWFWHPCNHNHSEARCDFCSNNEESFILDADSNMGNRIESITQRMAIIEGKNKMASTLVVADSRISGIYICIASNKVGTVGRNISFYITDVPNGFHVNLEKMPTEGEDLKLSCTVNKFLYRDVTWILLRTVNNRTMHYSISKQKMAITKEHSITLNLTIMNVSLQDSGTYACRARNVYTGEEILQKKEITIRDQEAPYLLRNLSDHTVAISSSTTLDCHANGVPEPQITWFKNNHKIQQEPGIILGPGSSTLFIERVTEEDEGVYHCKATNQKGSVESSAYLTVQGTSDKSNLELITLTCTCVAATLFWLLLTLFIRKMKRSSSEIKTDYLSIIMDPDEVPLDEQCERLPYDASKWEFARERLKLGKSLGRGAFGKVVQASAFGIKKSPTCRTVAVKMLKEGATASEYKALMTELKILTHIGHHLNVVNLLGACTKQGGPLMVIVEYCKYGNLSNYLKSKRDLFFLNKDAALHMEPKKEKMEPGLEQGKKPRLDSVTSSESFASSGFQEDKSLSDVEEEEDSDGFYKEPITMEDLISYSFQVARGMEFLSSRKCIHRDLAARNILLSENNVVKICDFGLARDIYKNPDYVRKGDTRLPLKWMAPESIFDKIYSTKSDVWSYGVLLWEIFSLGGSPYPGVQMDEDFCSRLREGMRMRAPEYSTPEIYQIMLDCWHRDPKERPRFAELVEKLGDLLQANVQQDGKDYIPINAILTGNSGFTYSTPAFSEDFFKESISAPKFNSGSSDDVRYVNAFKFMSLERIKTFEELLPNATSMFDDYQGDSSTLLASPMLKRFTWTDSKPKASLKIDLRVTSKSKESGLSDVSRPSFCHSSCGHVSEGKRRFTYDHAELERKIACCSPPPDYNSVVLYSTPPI

[6] = molecular target: cGMP-specific 3',5'-cyclic phosphodiesterase (Homo sapiens, UniProt O76074); assay: DRUGMATRIX: Phosphodiesterase PDE5 enzyme inhibition (substrate: [3H]cGMP + cGMP); format: tissue-based; settings: platelet; Not Active = under 50% inhibition at 10 µM
[7] = molecular target: T3, Amine oxidase [flavin-containing] A (Homo sapiens, UniProt P21397); assay: DRUGMATRIX: Monoamine Oxidase MAO-A enzyme inhibition (substrate: Kynuramine); set-up: species or system BTI-TN-5B1-4; settings: bti-tn-5b1-4; Not Active = under 50% inhibition at 10 µM
T3 sequence (P21397 whole entry): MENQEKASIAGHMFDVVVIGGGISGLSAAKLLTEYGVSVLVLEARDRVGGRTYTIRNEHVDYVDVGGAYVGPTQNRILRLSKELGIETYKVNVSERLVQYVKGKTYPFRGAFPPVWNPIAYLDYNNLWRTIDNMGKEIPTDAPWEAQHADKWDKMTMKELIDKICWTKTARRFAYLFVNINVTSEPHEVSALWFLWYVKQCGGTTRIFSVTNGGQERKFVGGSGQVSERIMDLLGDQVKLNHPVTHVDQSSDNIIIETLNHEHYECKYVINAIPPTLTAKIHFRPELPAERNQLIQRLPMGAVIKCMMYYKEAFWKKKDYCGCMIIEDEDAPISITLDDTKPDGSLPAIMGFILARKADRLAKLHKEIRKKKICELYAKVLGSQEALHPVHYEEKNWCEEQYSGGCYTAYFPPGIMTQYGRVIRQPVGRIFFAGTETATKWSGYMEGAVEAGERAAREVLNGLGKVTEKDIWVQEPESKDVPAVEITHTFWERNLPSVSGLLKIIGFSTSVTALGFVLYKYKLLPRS

[8] = DRUGMATRIX: Sodium/nucleoside co-transporter radioligand binding (ligand: nitrobenzylthioinosine); format: cell membranes, Cavia porcellus, Dunkin-Hartley, Cerebral cortex, Membrane; settings: Not Active = under 50% inhibition at 10 µM

SMILES | IC50 [1] | Ki [1] | IC50 [2] | IC50 [3] | IC50 ([4]; cho-k1) | IC50 [5] | IC50 [6] | IC50 [7] | IC50 [8] | Ki [8] | IC50 ([2]; read-out: IC50) | Ki [2] | IC50 ([4]; read-out: IC50) | Ki [4]
CC(C)C(=O)Nc1ccc([N+](=O)[O-])c(C(F)(F)F)c1 [FLUTAMIDE] | Not Active | Not Active | Not Active | Not Active | Not Active | Not Active | Not Active | Not Active | Not Active | Not Active | – | – | – | –
CC(C)[C@H]1C(=O)N2CCC[C@H]2[C@]2(O)O[C@](NC(=O)[C@@H]3C=C4c5cccc6[nH]cc(c56)C[C@H]4N(C)C3)(C(C)C)C(=O)N12 [ERGOCORNINE] | Not Active | Not Active | – | Not Active | – | Not Active | Not Active | Not Active | Not Active | Not Active | 5.19 nM | 2.87 nM | 11 nM | 6.86 nM
CC(C)(Oc1ccc(Cl)cc1)C(=O)O [CLOFIBRIC ACID] | Not Active | Not Active | Not Active | Not Active | Not Active | Not Active | Not Active | Not Active | Not Active | Not Active | – | – | – | –
CCCC1O[C@@H]2C[C@H]3[C@@H]4CCC5=CC(=O)C=C[C@]5(C)[C@H]4[C@@H](O)C[C@]3(C)[C@]2(C(=O)CO)O1 (some centres undefined) [BUDESONIDE] | Not Active | Not Active | Not Active | Not Active | Not Active | Not Active | Not Active | Not Active | Not Active | Not Active | – | – | – | –
O=C(CCCN1CC=C(n2c(=O)[nH]c3ccccc32)CC1)c1ccc(F)cc1 [DROPERIDOL] | Not Active | Not Active | – | Not Active | – | Not Active | Not Active | Not Active | Not Active | Not Active | 18 nM | 9.78 nM | 1340 nM | 854 nM
Cc1onc(O)c1CC(N)C(=O)O (racemic) [(R,S)-AMPA] | Not Active | Not Active | Not Active | Not Active | Not Active | Not Active | Not Active | Not Active | Not Active | Not Active | – | – | – | –
CCOC(=O)C1=C(COCCN)NC(C)=C(C(=O)OC)C1c1ccccc1Cl (centres undefined) [AMLODIPINE] | Not Active | Not Active | Not Active | Not Active | Not Active | Not Active | Not Active | Not Active | Not Active | Not Active | – | – | – | –
